Measurements taken from patent US4076702A, “Dipeptide derivatives and their production” (Shionogi & Co., Ltd., priority 1974, dated 1978).

What was measured:
DS male mice [1] = test: Rotarod performance activity; assay type: in vivo; conditions: fall from rod within less than 2 minutes counted as effective, 10 mice per dose; for ED50: Mus musculus
Procedure: (3) Rotarod performance activity
This test was measured on DS male mice. The mouse was put on a scraped rod of wood, 3 cm in diameter, turning at the rate of five rotations per minute. The mice that could remain on the rod for three or more minutes in successive trials were selected and placed in a group of 10 mice for each dose. If the mouse fell down from the rod within less than 2 minutes, the test compound was considered to be effective. Results were shown by ED50 [Dunham, et al.: J. Am. Pharm. Assoc., 46, 208 (1957)].

DS male mice [2] = test: Anti-pentylenetetrazol activity; assay type: in vivo; conditions: test compound orally 60 minutes prior to 125 mg/kg s.c. pentylenetetrazol, complete protection against mortality, observed two hours; for ED50: Mus musculus
Text: (1) Anti-pentylenetetrazol activity:
The convulsions were disregarded.

DS male mice [3] = conditions: oral single dose, observed 72 hours, Bliss method
Procedure: The test compound was orally administered to DS male mice in different single doses. For each dose, 10 mice were used, their weight ranging from 20 to 23 grams. […] The mortality was calculated by the Bliss method [Bliss: Ann.

DS male mice [4] = test: Taming activity (inhibition of electroshock-induced fighting response); assay type: in vivo; conditions: compound given 60 minutes prior, 5 pairs per group; for ED50: Mus musculus
Procedure: This test was measured on DS male mice. […] These pairs of mice were selected in the morning and used for drug test in the afternoon. The test compound was administered to both mice of the pairs 60 minutes prior to the experiment. Results were obtained as the mean percentage of inhibition of fighting response in a group of 5 pairs and shown by ED50 [Tedeschi, et al.: J. Pharmacol Exp. Thev., 125, 28-34 (1959)].

SMILES	Rotarod performance ED50 (DS male mice [1]) [mg/kg]	Anti-pentylenetetrazol activity, ED50 (DS male mice [2]) [mg/kg]	Acute toxicity LD50 (DS male mice [3]) [mg/kg]	Taming activity ED50 (DS male mice [4]) [mg/kg]	ED50 (DS male mice [1]) [mg/kg]	ED50 (DS male mice [2]) [mg/kg]	ED50 (DS male mice [4]) [mg/kg]
CN(C(=O)CNC(=O)CN)c1ccc(Cl)cc1C(=O)c1ccccc1 [Compound No. 1, 2-benzoyl-4-chloro-N-methyl-N^α -glycyl-glycinanilide]	36.6	1.0	1309	10.5	–	–	–
CN1C(=O)CN=C(c2ccccc2)c2cc(Cl)ccc21 [Compound No. 5, Diazepam, reference compound]	–	–	–	–	9.03	1.19	6
CN(C(=O)CNC(=O)CN)c1ccc(Cl)cc1C(=O)c1ccccc1Cl.O [Compound No. 2, 2-o-chlorobenzoyl-4-chloro-N-methyl-N^α -glycyl-glycinanilide hydrate]	27.7	0.58	1255	3.0	–	–	–
CN(C(=O)CNC(=O)CN)c1ccc(Cl)cc1C(=O)c1ccccc1F.Cl [Compound No. 3, 2-o-fluorobenzoyl-4-chloro-N-methyl-N^α -glycyl-glycinanilide hydrochloride]	17.0	0.33	> 1000	1.6	–	–	–
CNC1=Nc2ccc(Cl)cc2C(c2ccccc2)=[N+]([O-])C1 [Compound No. 4, Chlordiazepoxide, reference compound]	–	–	1090	–	50	3.7	24
